Patent US20240409536A1, “COMPOUNDS AND METHODS FOR MODULATING SPLICING” (REMIX THERAPEUTICS INC., priority 2021, published 2024)
pIC50: −log10 of the molar value.

What was measured:
[1] = test system: K562 cells; test: Cell Titer Glo 2.0 cell viability assay in K562 cells; conditions: 72 hours
[2] = test system: HiBiT-tagged MYB protein; test: HiBiT protein abundance assay, MYB (K562 HiBiT knock-in cells); type: cell-based, human; conditions: 24 hours
How it was run: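 K562 cells with endogenous HiBiT knock-in tag, 10-point 3-fold dilutions (top 10 μM final, ≤0.25% DMSO), 24 h at 37 °C. Lytic Nano-Glo HiBiT luminescence, normalized to DMSO and unmodified K562 baselines; IC50 is concentration giving 50% protein abundance from four-parameter fit.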

[3] = test system: HTT mRNA; test: Gene panel canonical junction qPCR assay, HTT CJ mRNA decrease; type: cell-based, human; conditions: Homo sapiens, canonical junction qPCR, read-out: HTT IC50 (decrease in CJ mRNA levels)
How it was run: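 A673 or K562 cells treated with compound; canonical exon-exon junction mRNA quantified by cDNA synthesis and RT-qPCR with junction-spanning primer/probe, normalized to GAPDH, GUSB or PPIA and DMSO (2^(−ΔΔCt)). Percent response from set ΔCt assay windows fitted to 4-parameter logistic; IC50 for CJ decrease.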

[4] = test system: Target C; test: HiBiT protein abundance assay, Target C (K562 HiBiT knock-in cells); type: cell-based, human; conditions: 24 hours
How it was run: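 K562 knock-in cells (10000/well, IMDM+1% FBS) treated 24 h at 37 °C with 10-point 3-fold dilutions, top final 10 μM, DMSO ≤0.25%. HiBiT lytic luminescence read; response normalized to unmodified K562 and DMSO-treated controls. IC50 interpolated at 50% abundance by four-parameter logistic fit.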

pIC50 [2]	pIC50 [3]	pIC50 [4]	SMILES	Viability [1]
> 7.00	6.00 to 7.00	6.00 to 7.00	Cc1nc2c(F)cc(NC(=O)c3ccc(N4CCNCC4)c4ccnnc34)cc2s1 [Compound 118]	A (A represents <100 nM)
6.00 to 7.00	< 5.00	< 5.00	Cc1cn2cc(NC(=O)c3ccc(N4C[C@@H](C)N[C@@H](C)C4)c4nccnc34)nc2c(C)n1 [Compound 359]	B (B represents 100-1000 nM)
6.00 to 7.00	< 5.00	5.00 to 6.00	COc1nc(NC(=O)c2ccc(N3C[C@@H](C)N[C@@H](C)C3)c3nccnc23)cc2oc(C)nc12 [Compound 298]	C (C represents 1000-9999 nM)
5.00 to 6.00	< 5.00	< 5.00	Cc1c(O)c(NC(=O)c2ccc(N3C[C@@H](C)N[C@@H](C)C3)c3nccnc23)cc2cn(C)nc12 [Compound 310]	C (C represents 1000-9999 nM)
6.00 to 7.00	6.00 to 7.00	6.00 to 7.00	Cc1cn2cc(NC(=O)c3ccc(N4CCN5CCOC[C@@H]5C4)c4nccnc34)cc(F)c2n1 [Compound 255, (S)—N-(8-fluoro-2-methylimidazo[1,2-a]pyridin-6-yl)-8-(hexahydropyrazino[2,1-c][1,4]oxazin-8(1H)-yl)quinoxaline-5-carboxamide]	B (B represents 100-1000 nM)
> 7.00	6.00 to 7.00	6.00 to 7.00	Cc1cn2cc(NC(=O)c3ccc(N4C[C@@H](C)N[C@@H](C)C4)c4ncc(N(C)C)nc34)cc(F)c2n1 [Compound 283]	B (B represents 100-1000 nM)
5.00 to 6.00	5.00 to 6.00	5.00 to 6.00	Cc1cn2cc(NC(=O)c3ccc(N4CCN5CCOC[C@H]5C4)c4nccnc34)cc(F)c2n1 [Compound 256, (R)—N-(8-fluoro-2-methylimidazo[1,2-a]pyridin-6-yl)-8-(hexahydropyrazino[2,1-c][1,4]oxazin-8(1H)-yl)quinoxaline-5-carboxamide]	C (C represents 1000-9999 nM)
6.00 to 7.00	5.00 to 6.00	5.00 to 6.00	Cc1cn2cc(NC(=O)c3ccc(N4CCC5(CCN5)C4)c4nccnc34)cc(F)c2n1 (centres unmarked) [Compound 339]	B (B represents 100-1000 nM)
5.00 to 6.00	< 5.00	< 5.00	CNc1nc(NC(=O)c2ccc(N3C[C@@H](C)N[C@@H](C)C3)c3nccnc23)cn2cc(C)nc12 [Compound 308]	C (C represents 1000-9999 nM)
6.00 to 7.00	< 5.00	< 5.00	Cc1cn2cc(NC(=O)c3ccc(NC4CCNC4)c4nccnc34)cc(F)c2n1 (centres unmarked) [Compound 316]	B (B represents 100-1000 nM)
> 7.00	5.00 to 6.00	5.00 to 6.00	Cc1cn2cc(NC(=O)c3ccc(N4CCNCC4)c4nccnc34)cc(F)c2n1 [Compound 111]	B (B represents 100-1000 nM)
6.00 to 7.00	6.00 to 7.00	5.00 to 6.00	Cc1cn2cc(NC(=O)c3ccc(N4CCN(C)C5(CC5)C4)c4nccnc34)cc(F)c2n1 [Compound 364]	B (B represents 100-1000 nM)
6.00 to 7.00	< 5.00	5.00 to 6.00	Cc1cn2cc(NC(=O)c3ccc(N4CC[C@@H](N)C4)c4nccnc34)cc(F)c2n1 [Compound 315]	B (B represents 100-1000 nM)
6.00 to 7.00	5.00 to 6.00	< 5.00	Cc1cn2cc(NC(=O)c3ccc(N4CCNC5(CC5)C4)c4cccnc34)cc(F)c2n1 [Compound 341]	B (B represents 100-1000 nM)
6.00 to 7.00	5.00 to 6.00	5.00 to 6.00	Cc1cn2cc(NC(=O)c3ccc(N4CCN[C@H](CO)C4)c4nccnc34)cc(F)c2n1 [Compound 362]	B (B represents 100-1000 nM)
6.00 to 7.00	5.00 to 6.00	5.00 to 6.00	Cc1cn2cc(NC(=O)c3ccc(N4CCN(CCO)C5(CC5)C4)c4nccnc34)cc(F)c2n1 [Compound 369]	C (C represents 1000-9999 nM)
6.00 to 7.00	5.00 to 6.00	< 5.00	Cc1cn2cc(NC(=O)c3ccc(N4C[C@@H](C)N[C@@H](C)C4)c4nccnc34)cc(C#N)c2n1 [Compound 294]	D (D represents greater than 10 μM in K562 cells)
6.00 to 7.00	5.00 to 6.00	5.00 to 6.00	Cc1cn2cc(NC(=O)c3ccc(N4CC[C@@H](N)C4)c4ccnnc34)cc(F)c2n1 [Compound 270]	B (B represents 100-1000 nM)
> 7.00	6.00 to 7.00	6.00 to 7.00	Cc1cn2cc(NC(=O)c3ccc(N4CCC(NC5CC5)CC4)c4nccnc34)cc(F)c2n1 [Compound 258, 8-(4-(cyclopropylamino)piperidin-1-yl)-N-(8-fluoro-2-methylimidazo[1,2-a]pyridin-6-yl)quinoxaline-5-carboxamide]	B (B represents 100-1000 nM)
6.00 to 7.00	< 5.00	5.00 to 6.00	C[C@@H]1CN(c2ccc(C(=O)Nc3cc(F)c4nc(Cl)cn4c3)c3nccnc23)C[C@H](C)N1 [Compound 306]	B (B represents 100-1000 nM)
6.00 to 7.00	5.00 to 6.00	5.00 to 6.00	Cc1cn2cc(NC(=O)c3ccc(N4CCNCC4)c4ccnnc34)c(C)cc2n1 [Compound 119]	B (B represents 100-1000 nM)
< 5.00	< 5.00	< 5.00	Cc1ccc2cc(NC(=O)c3ccc(N4C[C@@H](C)N[C@@H](C)C4)c4nccnc34)cc(F)c2n1 [Compound 353]	C (C represents 1000-9999 nM)
> 7.00	6.00 to 7.00	5.00 to 6.00	Cc1cn2cc(NC(=O)c3ccc(N4CCC(NC5CC5)CC4)c4ccnnc34)cc(F)c2n1 [Compound 259, 5-[4-(cyclopropylamino)piperidin-1-yl]-N-{8-fluoro-2-methylimidazo[1,2-a]pyridin-6-yl} cinnoline-8-carboxamide]	A (A represents <100 nM)
5.00 to 6.00	< 5.00	5.00 to 6.00	COc1nc2ccc(NC(=O)c3ccc(N4C[C@@H](C)N[C@@H](C)C4)c4nccnc34)cc2o1 [Compound 292]	D (D represents greater than 10 μM in K562 cells)
> 7.00	5.00 to 6.00	5.00 to 6.00	Cc1cn2cc(NC(=O)c3c(F)cc(N4C[C@@H](C)N[C@@H](C)C4)c4nccnc34)cc(F)c2n1 [Compound 261, cis-8-[(3R,5S)-3,5-dimethylpiperazin-1-yl]-6-fluoro-N-{8-fluoro-2-methylimidazo[1,2-a]pyridin-6-yl}quinoxaline-5-carboxamide]	B (B represents 100-1000 nM)
> 7.00	5.00 to 6.00	5.00 to 6.00	CN[C@@H]1CCN(c2ccc(C(=O)Nc3cc(F)c4nc(C)cn4c3)c3nnccc23)C1 [Compound 238, (R)—N-(8-fluoro-2-methylimidazo[1,2-a]pyridin-6-yl)-5-(3-(methylamino)pyrrolidin-1-yl)cinnoline-8-carboxamide]	B (B represents 100-1000 nM)
